Test results from patent US7425556B2 (priority 2005, dated 2008).

What was measured:
[1] = biological target: T1, GABAA2 receptors (α2, β3, γ2 receptor subunits) (Homo sapiens, UniProt P18507+P47869); test: biochemical; conditions: [3H]-Flunitrazepam ~2 nM, α2β3γ2 Sf9 membranes, 1 hr at 4° C.; read-out: GABAA2 Binding Ki
T1 construct: host or cells: Sf9 cells (membranes)
Procedure: In some embodiments, the binding test was directed to a subtype of GABAA receptors, such as GABAA1 receptors (i.e., those containing the α1 subunit), GABAA2 receptors (i.e., those containing the α2 subunit), GABAA3 receptors (i.e., those containing the α3 subunit) and GABAA5 receptors (i.e., those containing the α5 subunit).
[formula] Method FF GABAA2 Binding Method Reagents
Assay and Wash Buffer: 50 mM Tris-Citrate, 200 mM NaCl, pH 7.8
Compounds at 10 mM in DMSO: Put 75 μl in column 1 of compound plate.
Flumazenil, 10 mM (for NSB)
[^3H]-Flunitrazepam (Cat #NET567): Prepare 10× stock=20 nM, [F} in assay=˜2 nM
1. […] Add 5 ul of 30 uM flumazenil to wells 12 D-E for 50% control wells.
2. Spot 2 μl of compound dilutions into dry plate (Automation Program 3). Manually spot 2 μl 10 mM flumazenil into wells 12 F-H for nonspecific control.
3. Make 1:100 dilution in assay buffer (2 μl into 200 μl) and dispense 25 μl compound into assay plates (Automation Program 4).
4. Dispense 200 μl membranes into assay plate (Automation Program 5).
5. Add 25 μl [^3H]-Flunitrazepam (Automation Program 6). Incubate for 1 hr at 4° C.
6. Collect membranes on a cell harvester onto GF/B filter plates (pre-wet with dH2O and wash 5×400 μl/well, with cold assay buffer. (First 3 washes are considered hot; last two are cold.)
7. Dry plates for 2-3 hours at RT.
8. Add 40 μl Microsecond 40/well (Automation Program 7); seal plates. Count on a Top Count.
Data is analyzed by calculating percent of control, IC50, and Kid in an Lift template. The following formula is used in the templates: […]

[2] = biological target: T2, GABAA1 (human α1β2γ2 GABAA receptor) (Homo sapiens, UniProt P14867+P18507); test: Two-electrode voltage-clamp in Xenopus oocytes, potentiation of GABA EC10 current, GABAA1; format: cell-based; conditions: percentage potentiation of GABA EC10 current divided by that of diazepam
T2 construct: expressed in transfected cells; host or cells: Xenopus laevis oocytes injected with capped cRNA
T2 sequence (P14867 28-456): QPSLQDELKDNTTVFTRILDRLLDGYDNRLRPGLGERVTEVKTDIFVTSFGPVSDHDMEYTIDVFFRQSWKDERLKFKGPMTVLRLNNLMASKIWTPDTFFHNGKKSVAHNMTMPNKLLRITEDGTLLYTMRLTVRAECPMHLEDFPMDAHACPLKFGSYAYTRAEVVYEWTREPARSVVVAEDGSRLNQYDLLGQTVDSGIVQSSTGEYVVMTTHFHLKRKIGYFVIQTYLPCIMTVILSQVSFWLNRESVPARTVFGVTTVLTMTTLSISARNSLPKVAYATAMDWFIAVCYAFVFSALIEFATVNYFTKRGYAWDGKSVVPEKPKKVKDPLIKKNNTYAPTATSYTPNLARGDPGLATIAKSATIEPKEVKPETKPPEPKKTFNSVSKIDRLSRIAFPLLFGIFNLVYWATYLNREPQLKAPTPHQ
T2 sequence (P47870 25-512 partner limits assumed): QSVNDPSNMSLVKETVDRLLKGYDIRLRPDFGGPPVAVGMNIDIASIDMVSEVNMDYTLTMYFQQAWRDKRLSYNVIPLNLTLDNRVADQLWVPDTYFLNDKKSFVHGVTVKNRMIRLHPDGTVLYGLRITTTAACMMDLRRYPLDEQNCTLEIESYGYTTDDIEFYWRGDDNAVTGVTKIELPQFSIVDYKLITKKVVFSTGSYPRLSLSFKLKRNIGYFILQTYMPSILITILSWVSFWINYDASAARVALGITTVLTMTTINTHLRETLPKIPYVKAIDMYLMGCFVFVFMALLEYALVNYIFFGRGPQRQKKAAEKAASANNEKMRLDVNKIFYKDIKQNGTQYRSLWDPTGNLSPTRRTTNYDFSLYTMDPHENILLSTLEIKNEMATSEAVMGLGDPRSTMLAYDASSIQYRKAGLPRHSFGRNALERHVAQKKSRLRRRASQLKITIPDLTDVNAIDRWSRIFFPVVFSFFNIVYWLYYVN
T2 sequence (P18507 40-475): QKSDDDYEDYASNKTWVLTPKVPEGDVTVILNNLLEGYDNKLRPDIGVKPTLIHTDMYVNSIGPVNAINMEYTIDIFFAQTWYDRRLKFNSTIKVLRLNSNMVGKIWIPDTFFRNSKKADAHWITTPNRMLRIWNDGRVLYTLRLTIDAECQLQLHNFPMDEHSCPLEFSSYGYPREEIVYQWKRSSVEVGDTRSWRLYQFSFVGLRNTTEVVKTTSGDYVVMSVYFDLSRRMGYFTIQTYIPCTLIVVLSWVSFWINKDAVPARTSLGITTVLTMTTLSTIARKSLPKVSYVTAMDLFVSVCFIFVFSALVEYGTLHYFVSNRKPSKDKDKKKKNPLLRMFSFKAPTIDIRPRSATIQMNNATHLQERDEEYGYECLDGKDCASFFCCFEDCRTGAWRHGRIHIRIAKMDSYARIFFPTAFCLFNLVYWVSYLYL
Excerpt: (§1) Presently available GABAA modulator anxiolytics work via interactions at the classical benzodiazepine binding site. To a large degree these anxiolytics lack GABAA receptor subtype-selectivity. The subtype-selective GABAA receptor modulators may offer more advantages. […] Sedation, a side-effect common to all marketed benzodiazepines, is believed to be mediated by interactions at GABAARs containing the α1 subunit. To develop anxiolytics with minimal liabilities due to interactions with other subunits, an electrophysiological assay was developed to screen modulatory effects of various compounds on different GABA subunit combinations heterologously expressed in Xenopus oocytes.
(§2) GABAA receptors were heterologously expressed in Xenopus oocytes by injecting cRNA corresponding to human α1, α2, α3, α5, β2, β3 and γ2 subunits of the GABAA receptor genes. The specific subunit combinations (subtypes) were as follows: α1β2γ2, α2β3γ2, α3β3γ2, and α5β3γ2. The EC10 of GABA was approximated for each cell. Stability of GABA-mediated (EC10) current was established. Modulatory effect of test compound was determined and compared across subtypes. […] Thus, the assay can characterize modulatory effects and determine subtype selectivity of test compounds on major subtypes of GABAA receptors.
(§3) Xenopus laevis frogs (Xenopus I, Kalamazoo, MI) were anesthetized using 0. […] Surgically removed ovarian lobes were teased out in OR2 solution (82 NaCl, 2.5 KCl, 5 HEPES, 1.5 NaH2PO4, 1 MgCl2, 0.1 EDTA, in mM, pH 7.4). The acolytes were deflocculated by incubation in 25 mL OR2 containing 0.2% collagens 1A (SIGMA) two times for about 60 minutes on a platform shaker and stored in Leibovitz's L-15 medium. Acolytes were injected the following day in 0.5× Leibovitz's L-15 medium containing […] gentamycin, 10 units/ml penicillin, and […] streptomycin.
(§4) Capped cRNAs from the linear zed vectors containing human α1, β2 and γ2 subunits of the GABAA receptor genes were mixed in ratio of […]. Acolytes were injected with 25-50 nL of mixed RNA with an appx molar ratio for α1, β2 and γ2 as 1:1:10. Acolyte recordings were done 2-10 days after injection. The same methods apply to subtypes derived from α2β3γ2, α3β3γ2, and α5β3γ2, except for 1:1:1 ratio was used for α, β, and γ subunits.
(§5) All measurements were done in a medium containing ND-96 (96 NaCl, 2 KCl, 1.8 CaCl2.2H2O, 1 MgCl2.6H2O, 5 HEPES, in mM, pH 7.5). Two-electrode voltage-clamp recording was carried out using Opus press amplifier (Axon Instruments, Foster City, Calif.), which allows simultaneous recording from 8 acolytes. Acolytes were impaled with two electrodes of 1-2 MΩ tip resistance when filled with 3M KCl. Recordings were begun when membrane potential became stable at potentials negative to −50-−60 mV. Membrane potential was held at −60 mV. […] The concentration of GABA corresponded to the EC10 value calculated for each acolyte. The modulator pulses started 30 s before the GABA pulse so as to allow preoccupation with the modulator. A set of 3 pulses with just GABA without modulator was given prior to the modulator-containing pulses to define the baseline GABA response. Two acolytes per each experiment were dedicated to observe the effect of diazepam on GABA response to ensure the presence of γ subunit in the GABAA pantomimic complex, which imparts diazepam sensitivity to the complex.
(§6) Current amplitude (i) was measured from baseline to peak using Clamp fit (Axon Inst., Foster City, Calif.). Potentiating was calculated as percent change from the baseline GABA current flux 100×(imod/icontrol)−1) where imod=current mediated by modulator+GABA and icontrol=current mediated by GABA alone. […] Similarly, a value of −50% potentiating means the presence of modulator caused a 50% decrease in the control current.

[3] = biological target: T3, GABAA2 (human α2β3γ2 GABAA receptor) (Homo sapiens, UniProt P18507+P47869); test: Two-electrode voltage-clamp in Xenopus oocytes, potentiation of GABA EC10 current, GABAA2; format: cell-based; conditions: percentage potentiation of GABA EC10 current divided by that of diazepam
T3 construct: expressed in transfected cells; host or cells: Xenopus laevis oocytes injected with capped cRNA
T3 sequence (P47869 29-451): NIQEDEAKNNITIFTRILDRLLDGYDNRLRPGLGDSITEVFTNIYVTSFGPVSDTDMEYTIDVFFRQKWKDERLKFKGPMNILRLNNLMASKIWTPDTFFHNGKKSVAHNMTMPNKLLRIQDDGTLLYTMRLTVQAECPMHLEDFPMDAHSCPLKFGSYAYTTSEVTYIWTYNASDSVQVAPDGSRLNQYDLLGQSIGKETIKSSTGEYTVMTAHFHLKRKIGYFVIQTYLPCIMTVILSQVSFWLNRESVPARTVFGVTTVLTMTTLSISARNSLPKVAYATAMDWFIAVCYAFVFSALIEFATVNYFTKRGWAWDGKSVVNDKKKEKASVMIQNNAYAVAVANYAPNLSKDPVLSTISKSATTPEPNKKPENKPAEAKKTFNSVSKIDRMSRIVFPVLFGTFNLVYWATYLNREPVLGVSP
T3 sequence (P28472 26-473 partner): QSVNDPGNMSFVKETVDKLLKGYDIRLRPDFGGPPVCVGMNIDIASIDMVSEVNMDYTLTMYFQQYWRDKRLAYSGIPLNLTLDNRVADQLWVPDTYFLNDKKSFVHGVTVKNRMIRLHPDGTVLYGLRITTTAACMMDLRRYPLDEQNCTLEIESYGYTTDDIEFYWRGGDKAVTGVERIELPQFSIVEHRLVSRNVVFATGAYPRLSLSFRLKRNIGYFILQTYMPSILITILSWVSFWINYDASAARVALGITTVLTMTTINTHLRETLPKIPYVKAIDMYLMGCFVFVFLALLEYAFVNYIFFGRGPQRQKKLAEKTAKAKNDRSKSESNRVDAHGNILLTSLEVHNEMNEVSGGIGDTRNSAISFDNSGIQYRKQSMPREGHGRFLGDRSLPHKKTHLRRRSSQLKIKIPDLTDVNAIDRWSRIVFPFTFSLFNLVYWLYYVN
T3 sequence (P18507 40-475): as the sequence (P18507 40-475) above
Excerpt: as §1, §2, §3, §4, §5, §6

T1 sequence (P47869 29-451): as the sequence (P47869 29-451) above
T1 sequence (P28472 26-473 partner): as the sequence (P28472 26-473 partner) above
T1 sequence (P18507 40-475): as the sequence (P18507 40-475) above

SMILES	Ki [1] [nM]	Relative Potentiation for GABAA1 [2]	Relative Potentiation for GABAA2 [3]
CCNC(=O)c1nnc2c(-c3cnccc3OC)cccc2c1N	4.36	−0.02	0.28
CCCNC(=O)c1nnc2c(-c3ccc(Cl)cc3)c(F)ccc2c1N	8.72	0.02	0.19
CCCNC(=O)c1nnc2c(-c3ccc4ccccc4c3)cccc2c1N	43.3	0.22	0.09
CCCNC(=O)c1nnc2c(-c3cccc(F)c3F)cccc2c1N	0.558	−0.11	0.17
CCCNC(=O)c1nnc2c(-c3cncc(C(=O)N4CCC4)c3)cccc2c1N	2.34	−0.11	−0.033
CCCNC(=O)c1nnc2c(-c3ccc(C)nc3F)cccc2c1N	1.67	0.053	0.27
CCCNC(=O)c1nnc2c(-c3cc(F)cc(F)c3)cccc2c1N	8.6	−0.018	0.26
CCCNC(=O)c1nnc2c(-c3ccc(OC)c(F)c3)c(F)ccc2c1N	2.88	0.1	0.16
CCCNC(=O)c1nnc2c(-c3cccnc3F)cccc2c1N	1.13	−0.083	0.17
CCCNC(=O)c1nnc2c(-c3cnccc3C)cccc2c1N	1.68	0.083	0.11
CCCNC(=O)c1nnc2c(-c3cc(C(F)(F)F)ccc3Cl)cccc2c1N	1.36	0.47	0.59
CCNC(=O)c1nnc2c(-c3cnc(OC)nc3OC)cccc2c1N	14.4	0.005	0.35
CCCNC(=O)c1nnc2c(-c3cccc(C(=O)O)c3)cccc2c1N	53.8	−0.038	0.08
CCCNC(=O)c1nnc2c(-c3cccc(C#N)c3)cccc2c1N	1.18	0.088	0.31
CCCNC(=O)c1nnc2c(-c3cc(F)ccc3F)c(F)ccc2c1N	45.8	0.013	0.098
CCCNC(=O)c1nnc2c(-c3ccc(C)c(C)c3)cccc2c1N	16.8	0.23	0.35
CCCNC(=O)c1nnc2c(-c3cc(C(F)(F)F)cc(C(F)(F)F)c3)cccc2c1N	356	0.44	0.13
CCCNC(=O)c1nnc2c(-c3cccc(OC)c3F)c(F)ccc2c1N	0.941	0.05	0.23
CCCNC(=O)c1nnc2c(-c3ccc(C)nc3)cccc2c1N	4.11	−0.16	0.14
CCCNC(=O)c1nnc2c(-c3cccnc3OC)cccc2c1N	2.1	0.2	0.097
CCCNC(=O)c1nnc2c(-c3cc(C)ccc3OC)c(F)ccc2c1N	0.937	0.23	0.37
CCCNC(=O)c1nnc2c(-c3cnccc3OC)c(Cl)ccc2c1N	0.505	0.15	0.14
CCCNC(=O)c1nnc2c(-c3ccc(C)cc3)cccc2c1N	29	0.013	0.11
CCCNC(=O)c1nnc2c(-c3cc(Cl)ccc3Cl)cccc2c1N	0.71	0.12	0.21
CCCNC(=O)c1nnc2c(-c3cc(C)c(OC)c(C)c3)cccc2c1N	35.8	0.79	0.32
CCCNC(=O)c1nnc2c(-c3ccc(F)cc3F)cccc2c1N	1.72	−0.088	0.12
CCCNC(=O)c1nnc2c(-c3cccnc3)cccc2c1N	2.6	−0.11	0.054
CCCNC(=O)c1nnc2c(-c3cc(OC)ccc3Cl)c(F)ccc2c1N	1.25	0.14	0.19
CCCNC(=O)c1nnc2c(-c3cnc4ccccc4c3)cccc2c1N	12.3	−0.15	0.11
